Measurements published in US5739114A, “Immunosuppressive cyclolignan derivatives” (Universidad de Salamanca, priority 1994, dated 1998).
Converted amounts (≈) assume the structure as drawn. Like-named read-outs stand apart in the source and are kept apart here.

How the values were obtained:
[1] = Cytotoxicity for monkey kidney fibroblasts; format: cell-based
Text: ^d IC50 (μg/ml) for monkey kidney fibroblasts.

[2] = test system: Graft-vs.-Host Reaction (spleen weight); assay: in vivo Graft-vs.-Host Reaction (GVHR) test
Text: ^b % reduction of spleen weight with respect to non treated animals.

graft (implant duration) = assay: in vivo Suppression Graft (SG) test
Text: ^c % of implant duration with respect to non treated animals.
^e 20% of the animals died in this experiment before the end of the
program (30 days of observation).

COc1cc([C@@H]2c3cc(O)c(O)cc3C[C@H]3COC(=O)[C@H]32)cc(OC)c1OC [AP-37, 3,4-O-demethylenedeoxypicropodophyllin]
CC50 ([1]; read-out: Cytotox. IC50): > 20 mg/L | GVHR index: % reduction of spleen weight with respect to non treated animals ([2]; dose 0.1 mg/kg/day (7 days)): 58%

COc1cc([C@@H]2c3cc(O)c(O)cc3[C@@H](O)[C@H]3COC(=O)[C@H]23)cc(OC)c1OC [AP-39, 3,4-O-demethyleneepipodophyllotoxin]
CC50 ([1]; read-out: Cytotox. IC50): > 10 mg/L | SG index: % of implant duration with respect to non treated animals (graft (implant duration); dose 1.5 mg/kg/day (7 days)): 200%

COc1cc([C@@H]2c3cc(O)c(O)cc3[C@H](O)[C@H]3COC(=O)[C@H]23)cc(OC)c1OC [AP-40, 3,4-O-demethylenepodophyllotoxin]
CC50 ([1]; read-out: Cytotox. IC50): 0.5 mg/L (≈ 1.24 µM) | SG index: % of implant duration with respect to non treated animals (graft (implant duration); dose 1.5 mg/kg/day (7 days)): 229%

COC(=O)C1Oc2cc3c(cc2O1)[C@@H](c1cc(OC)c(OC)c(OC)c1)[C@@H]1C(=O)OC[C@@H]1C3 (stereo partly shown) [AP-47, 10-methoxycarbonyldeoxypicropodophyllin]
CC50 ([1]; read-out: Cytotox. IC50): 2.5 mg/L (≈ 5.48 µM) | GVHR index: % reduction of spleen weight with respect to non treated animals ([2]; dose 10 mg/kg/day (7 days)): 56%

O=P1(N(CCCl)CCCl)NCCCO1 (stereo not shown) [Cyclophosphamide, reference compound]
GVHR index: % reduction of spleen weight with respect to non treated animals ([2]; dose 200 mg/kg/day (7 days)): 79%

COC(=O)C1C2CN(c3ccccc3)N=C2c2cc3c(cc2C1c1cc(OC)c(OC)c(OC)c1)OCO3 (stereo not shown) [LL-4, methyl phenylpyrazopodophyllate]
CC50 ([1]; read-out: Cytotox. IC50): 1 mg/L (≈ 1.94 µM) | GVHR index: % reduction of spleen weight with respect to non treated animals ([2]; dose 1 mg/kg/day (7 days)): 53%

COc1cc(C2c3cc4c(cc3C3=NOCC3C2C(=O)O)OCO4)cc(OC)c1OC (stereo not shown) [LL-11, isoxazopodophyllic acid]
CC50 [1]: > 10 mg/L | SG index: % of implant duration with respect to non treated animals (graft (implant duration); dose 0.15 mg/kg/day (7 days)): 204%
